Laboratory results from US9682991B2, “Tricyclic compounds for use as kinase inhibitors” (FUNDACIÓN CENTRO NACIONAL DE INVESTIGACIONES ONCOLOGICAS …, priority 2009, dated 2017).
Where two headings read alike, the source gives them in different places.

Tests used:
[1] = test system: Bad S112 phosphorylation in H1299 cells overexpressing Pim1 (H1299Pim1); experiment: Bad S112 phosphorylation inhibition assay (In Cell ELISA); assay type: cell-based; conditions: Homo sapiens, NCI-H1299, semi-quantitative, read-out: EC50 BadP ELISA H1299 Pim1
Method: Efficacy of compounds of the invention on the inhibition of Bad phosphorylation was measured by an In Cell ELISA. EC50 values were established for the tested compounds.
Cells: H1299 cells overexpressing Pim1 (H1299Pim1)
Cells were seeded in 15000 cells per 200 μl per well into 96-well plates and incubated for 16 h at 37° C., 5% CO2. On day two, nine serial 1:2 compound dilutions were made in DMSO in a 96-well plate. The compounds were added to duplicate wells in 96-well cell plates using a FX BECKMAN robot (Beckman Coulter) and incubated at 37° C. with CO2 atmosphere. After 4 hours, relative levels of Bad S112 phosphorylation were measured in Cell ELISA using SuperSignal ELISA Femto substrate (Pierce) and read on VICTOR (Perkin Elmer). EC50 values were calculated using ActivityBase from IDBS.

PIM-1 = PIM-1 (Homo sapiens (Human), UniProt P11309); experiment: PIM-1 biochemical assay (ADP Hunter)
Chain of PIM-1 (P11309 whole entry): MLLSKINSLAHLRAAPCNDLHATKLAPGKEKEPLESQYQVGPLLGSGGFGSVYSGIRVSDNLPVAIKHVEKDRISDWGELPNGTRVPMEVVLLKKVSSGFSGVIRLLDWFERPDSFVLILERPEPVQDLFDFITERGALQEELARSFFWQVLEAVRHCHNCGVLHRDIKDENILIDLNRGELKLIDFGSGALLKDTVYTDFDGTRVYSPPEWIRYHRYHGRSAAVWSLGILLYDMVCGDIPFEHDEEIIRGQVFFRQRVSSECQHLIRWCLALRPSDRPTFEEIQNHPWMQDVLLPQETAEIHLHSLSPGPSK

PIM-3 = PIM-3 (Homo sapiens (Human), UniProt Q86V86); experiment: PIM-3 biochemical assay (ADP Hunter); conditions: semi-quantitative; read-out: PIM3 IC50
PIM-2 = PIM-2 (Homo sapiens (Human), UniProt Q9P1W9); experiment: PIM-2 biochemical assay (ADP Hunter); conditions: semi-quantitative; read-out: PIM2 IC50
Chain of PIM-2 (Q9P1W9 whole entry): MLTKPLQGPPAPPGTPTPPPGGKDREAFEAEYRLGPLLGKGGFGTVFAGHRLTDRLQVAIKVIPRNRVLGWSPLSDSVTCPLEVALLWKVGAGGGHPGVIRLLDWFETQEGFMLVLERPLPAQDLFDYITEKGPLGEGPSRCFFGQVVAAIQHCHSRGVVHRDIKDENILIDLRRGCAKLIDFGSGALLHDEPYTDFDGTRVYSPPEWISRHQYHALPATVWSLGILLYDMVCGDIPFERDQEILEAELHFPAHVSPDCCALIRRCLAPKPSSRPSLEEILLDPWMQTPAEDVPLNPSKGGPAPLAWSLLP
Description: The biochemical assay to measure PIM-2 activity relies on the ADP Hunter assay kit (DiscoveRx Corp., Cat. #90-0077), that determines the amount of ADP as direct product of the kinase enzyme activity.

[2] = read-out: PIM1 IC50, semi-quantitative

SMILES | EC50 [1] | IC50 (PIM-1) | IC50 (PIM-3) | IC50 (PIM-2) | IC50 (PIM-1; [2]) | IC50 (PIM-1; read-out: PIM1 IC50)
CN1CCC(CNc2nn3c(-c4cccc(C#N)c4)nnc3c3c2N(C)CCO3)CC1 [Example 31, 3-{6-Methyl-5-[(1-methyl-piperidin-4-ylmethyl)-amino]-7,8-dihydro-6H-9-oxa-1,2,3a,4,6-pentaaza-cyclopenta[a]naphthalen-3-yl}-benzonitrile] | 1000 to 10000 nM | 100 to 1000 nM | 100 to 1000 nM | > 1000 nM |  | 
CN1CCOc2c1c(N1CCCC3(CCCN3)CC1)nn1c(-c3cccc(OC(F)(F)F)c3)nnc21 (centres unmarked) [Example 60, 5-(1,8-Diaza-spiro[4.6]undec-8-yl)-6-methyl-3-(3-trifluoromethoxy-phenyl)-7,8-dihydro-6H-9-oxa-1,2,3a,4,6-pentaaza-cyclopenta[a]naphthalene] | < 250 nM |  |  | 100 to 1000 nM | < 100 nM | 
CN1CCOc2c1c(NCCN1CCOCC1)nn1c(-c3cccc(OC(F)(F)F)c3)nnc21 [Example 29, [6-Methyl-3-(3-trifluoromethoxy-phenyl)-5,6,7,8-tetrahydro-9-oxa-1,2,3a,4,6-pentaaza-cyclopenta[a]naphthalen-5-yl]-(2-morpholin-4-yl-ethyl)-amine] | < 250 nM |  | 100 to 1000 nM | 100 to 1000 nM |  | 
CN1CCOc2c1c(NCC13CCN(CC1)C3)nn1c(-c3cccc(OC(F)(F)F)c3)nnc21 [Example 54, (1-Aza-bicyclo[2.2.1]hept-4-ylmethyl)-[6-methyl-3-(3-trifluoromethoxy-phenyl)-7,8-dihydro-6H-9-oxa-1,2,3a,4,6-pentaaza-cyclopenta[a]naphthalen-5-yl]-amine] | 250 to 1000 nM |  |  |  |  | 
CN1CCC(CNc2nn3c(-c4cccc(OC(F)(F)F)c4)nnc3c3c2OCCN3C)CC1 [Example 17, (1-Methyl-piperidin-4-ylmethyl)-[9-methyl-3-(3-trifluoromethoxy-phenyl)-8,9-dihydro-7H-6-oxa-1,2,3a,4,9-pentaaza-cyclopenta[a]naphthalen-5-yl]-amine] | 1000 to 10000 nM |  | 100 to 1000 nM | > 1000 nM | < 100 nM | 
FC(F)(F)Oc1cccc(-c2nnc3c4c(c(N5CCCCC5)nn23)OCCO4)c1 [Example 101, 5-Piperidin-1-yl-3-(3-trifluoromethoxy-phenyl)-7,8-dihydro-6,9-dioxa-1,2,3a,4-tetraaza-cyclopenta[a]naphthalene] | 1000 to 10000 nM |  | 100 to 1000 nM | 100 to 1000 nM | < 100 nM | 
CN1CCOc2c(N3CCC(CN)CC3)nn3c(-c4cccc(OC(F)(F)F)c4)nnc3c21 [Example 57, C-{1-[9-Methyl-3-(3-trifluoromethoxy-phenyl)-8,9-dihydro-7H-6-oxa-1,2,3a,4,9-pentaaza-cyclopenta[a]naphthalen-5-yl]-piperidin-4-yl}-methylamine] | 1000 to 10000 nM |  | > 1000 nM | > 1000 nM | < 100 nM | 
CN1CCOc2c1c(NC1CC3(CCNCC3)C1)nn1c(-c3cccc(OC(F)(F)F)c3)nnc21 [Example 49, (7-Aza-spiro[3.5]non-2-yl)-[6-methyl-3-(3-trifluoromethoxy-phenyl)-7,8-dihydro-6H-9-oxa-1,2,3a,4,6-pentaaza-cyclopenta[a]naphthalen-5-yl]-amine] | 250 to 1000 nM |  |  |  | < 100 nM | 
COc1ccc(-c2nnc3c4c(c(NCc5ccc(F)cc5)nn23)N(C)CCO4)cc1 [Example 81, (4-Fluoro-benzyl)-[3-(4-methoxy-phenyl)-6-methyl-7,8-dihydro-6H-9-oxa-1,2,3a,4,6-pentaaza-cyclopenta[a]naphthalen-5-yl]-amine] | 1000 to 10000 nM |  | 100 to 1000 nM | > 1000 nM | < 100 nM | 
CC(C)NCC1CCN(c2nn3c(-c4cccc(OC(F)(F)F)c4)nnc3c3c2OCCN3C)CC1 [Example 86, Isopropyl-{1-[9-methyl-3-(3-trifluoromethoxy-phenyl)-8,9-dihydro-7H-6-oxa-1,2,3a,4,9-pentaaza-cyclopenta[a]naphthalen-5-yl]-piperidin-4-ylmethyl}-amine] | 1000 to 10000 nM | 100 to 1000 nM | 100 to 1000 nM | > 1000 nM |  | 
CN1CCC(CNc2nn3c(-c4cccc(OC(F)(F)F)c4)nnc3c3c2CCCC3)CC1 [Example 37, (1-Methyl-piperidin-4-ylmethyl)-[3-(3-trifluoromethoxy-phenyl)-7,8,9,10-tetrahydro-[1,2,4]triazolo[3,4-a]phthalazin-6-yl]-amine] | 1000 to 10000 nM |  |  |  |  | 
CN1CCC(CNc2nn3c(-c4cccc(N(C)C)c4)nnc3c3c2N(C)CCO3)CC1 [Example 34, [3-(3-Dimethylamino-phenyl)-6-methyl-7,8-dihydro-6H-9-oxa-1,2,3a,4,6-pentaaza-cyclopenta[a]naphthalen-5-yl]-(1-methyl-piperidin-4-ylmethyl)-amine] | 1000 to 10000 nM |  | 100 to 1000 nM | > 1000 nM | < 100 nM | 
CN1CCOc2c(NCC3CCNCC3)nn3c(-c4cccc(OC(F)(F)F)c4)nnc3c21 [Example 58, [9-Methyl-3-(3-trifluoromethoxy-phenyl)-8,9-dihydro-7H-6-oxa-1,2,3a,4,9-pentaaza-cyclopenta[a]naphthalen-5-yl]-piperidin-4-ylmethyl-amine] | 1000 to 10000 nM |  | 100 to 1000 nM | > 1000 nM | < 100 nM | 
CN1CCC(CNc2nn3c(-c4ccc(F)cc4)nnc3c3c2N(C)CCO3)CC1 [Example 100, [3-(4-Fluoro-phenyl)-6-methyl-7,8-dihydro-6H-9-oxa-1,2,3a,4,6-pentaaza-cyclopenta[a]naphthalen-5-yl]-(1-methyl-piperidin-4-ylmethyl)-amine] | 1000 to 10000 nM | 100 to 1000 nM |  | > 1000 nM |  | 181 nM
CN1CCOc2c(N3CCC4(CC3)CC(N)C4)nn3c(-c4cccc(OC(F)(F)F)c4)nnc3c21 [Example 66, 7-[9-Methyl-3-(3-trifluoromethoxy-phenyl)-8,9-dihydro-7H-6-oxa-1,2,3a,4,9-pentaaza-cyclopenta[a]naphthalen-5-yl]-7-aza-spiro[3.5]non-2-ylamine] | 1000 to 10000 nM |  | 100 to 1000 nM | > 1000 nM | < 100 nM | 
CN1CCOc2c1c(NCC1CC3(CCNCC3)C1)nn1c(-c3cccc(OC(F)(F)F)c3)nnc21 [Example 59] | 250 to 1000 nM |  |  |  |  | 
CCN1CCOc2c1c(NCC1CCN(C)CC1)nn1c(-c3cccc(OC(F)(F)F)c3)nnc21 [Example 12, [6-Ethyl-3-(3-trifluoromethoxy-phenyl)-7,8-dihydro-6H-9-oxa-1,2,3a,4,6-pentaaza-cyclopenta[a]naphthalen-5-yl]-(1-methyl-piperidin-4-ylmethyl)-amine] | < 250 nM |  |  |  | < 100 nM | 
CNC1CCN(c2nn3c(-c4cccc(OC(F)(F)F)c4)nnc3c3c2N(C)CCO3)CC1 [Example 62, Methyl-{1-[6-methyl-3-(3-trifluoromethoxy-phenyl)-7,8-dihydro-6H-9-oxa-1,2,3a,4,6-pentaaza-cyclopenta[a]naphthalen-5-yl]-piperidin-4-yl}-amine] | < 250 nM |  | < 100 nM | 100 to 1000 nM | < 100 nM | 
CN1CCOc2c1c(NCc1ccc(F)cc1)nn1c(-c3cccc(OC(F)(F)F)c3)nnc21 [Example 9, (4-Fluoro-benzyl)-[6-methyl-3-(3-trifluoromethoxy-phenyl)-7,8-dihydro-6H-9-oxa-1,2,3a,4,6-pentaaza-cyclopenta[a]naphthalen-5-yl]-amine] | 1000 to 10000 nM | < 100 nM |  | > 1000 nM |  | 52.4 nM
CN1CCOc2c(NC3CC4(CCNCC4)C3)nn3c(-c4cccc(OC(F)(F)F)c4)nnc3c21 [Example 65, (7-Aza-spiro[3.5]non-2-yl)-[9-methyl-3-(3-trifluoromethoxy-phenyl)-8,9-dihydro-7H-6-oxa-1,2,3a,4,9-pentaaza-cyclopenta[a]naphthalen-5-yl]-amine] | 1000 to 10000 nM |  | 100 to 1000 nM |  | < 100 nM | 
CN1CCOc2c1c(N1CC3(CCCNC3)C1)nn1c(-c3cccc(OC(F)(F)F)c3)nnc21 [Example 69, 5-(2,6-Diaza-spiro[3.5]non-2-yl)-6-methyl-3-(3-trifluoromethoxy-phenyl)-7,8-dihydro-6H-9-oxa-1,2,3a,4,6-pentaaza-cyclopenta[a]naphthalene] | < 250 nM |  |  | 100 to 1000 nM | < 100 nM | 
CCN1CCC(CNc2nn3c(-c4cccc(OC(F)(F)F)c4)nnc3c3c2N(C)CCO3)CC1 [Example 91, (1-Ethyl-piperidin-4-ylmethyl)-[6-methyl-3-(3-trifluoromethoxy-phenyl)-7,8-dihydro-6H-9-oxa-1,2,3a,4,6-pentaaza-cyclopenta[a]naphthalen-5-yl]-amine] | 250 to 1000 nM |  |  |  |  | 
CN(CCN1CCOCC1)c1nn2c(-c3cccc(OC(F)(F)F)c3)nnc2c2c1N(C)CCO2 [Example 98, Methyl-[6-methyl-3-(3-trifluoromethoxy-phenyl)-7,8-dihydro-6H-9-oxa-1,2,3a,4,6-pentaaza-cyclopenta[a]naphthalen-5-yl]-(2-morpholin-4-yl-ethyl)-amine] |  |  | 100 to 1000 nM | 100 to 1000 nM | < 100 nM | 
